Assay results as given in US12049450B2, “Pyridyloxy-carboxylate derivative and preparation method therefor, herbicidal composition, and use” (Qingdao Kingagroot Chemical Compound Co., Ltd., priority 2018, dated 2024).

Experiments:
Experiment in all cases: Post-emergence test experiment (greenhouse pot, spray at 2-3 leaf stage)
Type in all cases: in vivo
Settings in all cases: 1000 g/ha; post-emergence spray at 2-3 leaf stage; assessed after 3 weeks; fresh weight inhibition rate
Abutilon theophrasti = system: Abutilon theophrasti
Method in brief: (§1)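 Weed seeds sown in soil-filled pots in greenhouse, sprayed at 2-3 leaf stage (2 weeks after sowing) with compound in acetone/tween-80 plus methyl oleate emulsible concentrate (1.5 L/ha) diluted in water. Fresh-weight growth inhibition scored after 3 weeks on 0-5 scale (5: >85%, 0: <5%).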

Digitaria sanguinalis = system: Digitaria sanguinalis
Method in brief: as §1

Echinochloa crusgalli = system: Echinochloa crusgalli
Method in brief: as §1

Galium spurium = system: Galium spurium
Method in brief: as §1

Monochoria vaginalis = system: Monochoria vaginalis
Method in brief: as §1

SMILES | Activity level (growth inhibition rate) Abutilon theophrasti (Abutilon theophrasti) | Activity level (growth inhibition rate) Digitaria sanguinalis (Digitaria sanguinalis) | Activity level (growth inhibition rate) Echinochloa crusgalli (Echinochloa crusgalli) | Activity level (growth inhibition rate) Galium spurium (Galium spurium) | Activity level (growth inhibition rate) Monochoria Vaginalis (Monochoria vaginalis)
CC(Oc1nc(F)c(Cl)c(N)c1Cl)C(=O)OCc1cc2ccccc2o1 (stereo not drawn) [Compound 173] | 5 (Level 5: the growth inhibition rate is greater than 85%) | 5 (Level 5: the growth inhibition rate is greater than 85%) | 5 (Level 5: the growth inhibition rate is greater than 85%) | 5 (Level 5: the growth inhibition rate is greater than 85%) | 5 (Level 5: the growth inhibition rate is greater than 85%)
CC(Oc1nc(F)c(Cl)c(N)c1Cl)C(=O)SCc1ccc2ncoc2c1 (stereo not drawn) [Compound 174] | 5 (Level 5: the growth inhibition rate is greater than 85%) | 5 (Level 5: the growth inhibition rate is greater than 85%) | 5 (Level 5: the growth inhibition rate is greater than 85%) | 5 (Level 5: the growth inhibition rate is greater than 85%) | 5 (Level 5: the growth inhibition rate is greater than 85%)
Cc1nc2cc(COC(=O)C(C)Oc3nc(F)c(Cl)c(N)c3Cl)ccc2o1 (stereo not drawn) [Compound 175] | 5 (Level 5: the growth inhibition rate is greater than 85%) | 5 (Level 5: the growth inhibition rate is greater than 85%) | 5 (Level 5: the growth inhibition rate is greater than 85%) | 5 (Level 5: the growth inhibition rate is greater than 85%) | 5 (Level 5: the growth inhibition rate is greater than 85%)
CC(Oc1nc(F)c(Cl)c(N)c1Cl)C(=O)OCc1ccc2c(c1)OCO2 (stereo not drawn) [Compound 176] | 5 (Level 5: the growth inhibition rate is greater than 85%) | 5 (Level 5: the growth inhibition rate is greater than 85%) | 5 (Level 5: the growth inhibition rate is greater than 85%) | 5 (Level 5: the growth inhibition rate is greater than 85%) | 5 (Level 5: the growth inhibition rate is greater than 85%)
CC(Oc1nc(F)c(Cl)c(N)c1Cl)C(=O)OCc1cc2ccccc2s1 (stereo not drawn) [Compound 177] | 5 (Level 5: the growth inhibition rate is greater than 85%) | 5 (Level 5: the growth inhibition rate is greater than 85%) | 5 (Level 5: the growth inhibition rate is greater than 85%) | 5 (Level 5: the growth inhibition rate is greater than 85%) | 5 (Level 5: the growth inhibition rate is greater than 85%)
CC(Oc1nc(F)c(Cl)c(N)c1Cl)C(=O)OCc1nc2ccccc2s1 (stereo not drawn) [Compound 178] | 5 (Level 5: the growth inhibition rate is greater than 85%) | 5 (Level 5: the growth inhibition rate is greater than 85%) | 5 (Level 5: the growth inhibition rate is greater than 85%) | 5 (Level 5: the growth inhibition rate is greater than 85%) | 5 (Level 5: the growth inhibition rate is greater than 85%)
